Toxic doses and inconclusive results are not listed. Rule for the calls: active = survival T/C of 150% or more; inactive = T/C below 125% in these data.
Test system: BDF1 mice, B16 melanoma ip, median survival T/C
Assay: NCI In Vivo Anticancer Drug Screen. Data for tumor model B16 Melanoma (intraperitoneal) in B6D2F1 (BDF1) mice
Conditions: endpoint: median survival time, higher = longer survival
Summary of the method: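 In this screen, activity was judged from survival or tumor size in treated versus vehicle-treated tumor-bearing mice, reported as T/C.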

[1] = dose: 12.5 mg/kg/injection, schedule: Q01DX009 (ip), vehicle: saline with Tween-80
[2] = dose: 25.0 mg/kg/injection, schedule: Q01DX009 (ip), vehicle: saline with Tween-80
[3] = dose: 25.0 mg/kg/injection, schedule: Q01DX009 (ip), vehicle: Klucel (hydroxypropylcellulose) (HPC)
[4] = dose: 50.0 mg/kg/injection, schedule: Q01DX009 (ip), vehicle: Klucel (hydroxypropylcellulose) (HPC)
[5] = dose: 100.0 mg/kg/injection, schedule: Q01DX009 (ip), vehicle: Klucel (hydroxypropylcellulose) (HPC)
[6] = dose: 12.5 mg/kg/injection, schedule: Q04DX003 (ip), vehicle: Klucel (hydroxypropylcellulose) (HPC)
[7] = dose: 25.0 mg/kg/injection, schedule: Q04DX003 (ip), vehicle: Klucel (hydroxypropylcellulose) (HPC)
[8] = dose: 50.0 mg/kg/injection, schedule: Q04DX003 (ip), vehicle: Klucel (hydroxypropylcellulose) (HPC)
[9] = dose: 200.0 mg/kg/injection, schedule: Q04DX003 (ip), vehicle: Klucel (hydroxypropylcellulose) (HPC)
[10] = dose: 50.0 mg/kg/injection, schedule: Q01DX009 (ip), vehicle: saline with Tween-80
[11] = dose: 100.0 mg/kg/injection, schedule: Q01DX009 (ip), vehicle: saline with Tween-80
[12] = dose: 200.0 mg/kg/injection, schedule: Q01DX009 (ip), vehicle: saline with Tween-80

Measured: T/C

O=C(Nc1ccc([N+](=O)[O-])cc1)Nc1ccc([N+](=O)[O-])c(C(F)(F)F)c1
inactive: dose: 6.25 mg/kg/injection, schedule: Q01DX009 (ip), vehicle: saline with Tween-80 100 % of control | [1] 100 % of control | [2] 90 % of control

CC(=O)Nc1c(Cl)c(Cl)c2c(c1Cl)Cc1cc(Br)ccc1-2
inactive: dose: 1.5 mg/kg/injection, schedule: Q01DX009 (ip), vehicle: saline with Tween-80 94 % of control | dose: 3.0 mg/kg/injection, schedule: Q01DX009 (ip), vehicle: saline with Tween-80 94 % of control | dose: 6.0 mg/kg/injection, schedule: Q01DX009 (ip), vehicle: saline with Tween-80 100 % of control | dose: 12.0 mg/kg/injection, schedule: Q01DX009 (ip), vehicle: saline with Tween-80 92 % of control | [1] 97 % of control

CCNC(C)(C)C(S)c1ccc(Cl)s1 (centres undefined)
inactive: dose: 18.75 mg/kg/injection, schedule: Q01DX009 (ip), vehicle: saline with Tween-80 97 % of control | [3] 97 % of control | dose: 37.5 mg/kg/injection, schedule: Q01DX009 (ip), vehicle: saline with Tween-80 101 % of control | [4] 101 % of control | dose: 75.0 mg/kg/injection, schedule: Q01DX009 (ip), vehicle: saline with Tween-80 100 % of control | [5] 95 % of control | dose: 150.0 mg/kg/injection, schedule: Q01DX009 (ip), vehicle: saline with Tween-80 106 % of control

C#CCC1(OC(N)=O)CCCCC1
inactive: dose: 6.25 mg/kg/injection, schedule: Q04DX003 (ip), vehicle: Klucel (hydroxypropylcellulose) (HPC) 99 % of control | dose: 12.5 mg/kg/injection, schedule: Q01DX009 (ip), vehicle: saline 104 % of control | [6] 97 % of control | dose: 25.0 mg/kg/injection, schedule: Q01DX009 (ip), vehicle: saline 100 % of control | [7] 97 % of control | dose: 50.0 mg/kg/injection, schedule: Q01DX009 (ip), vehicle: saline 89 % of control | [8] 98 % of control | dose: 100.0 mg/kg/injection, schedule: Q01DX009 (ip), vehicle: saline 87 % of control | dose: 100.0 mg/kg/injection, schedule: Q04DX003 (ip), vehicle: Klucel (hydroxypropylcellulose) (HPC) 103 % of control | [9] 95 % of control

O=C(/C(=C\c1ccccc1)CN1CCOCC1)c1ccc(Br)cc1
inactive: [1] 91 % of control | [2] 94 % of control | [10] 94 % of control | [11] 89 % of control

CC(CN(C)C)C(=O)c1ccccc1 (centres undefined)
inactive: [3] 106 % of control | [4] 90 % of control | [5] 96 % of control

NNC(=O)NO
inactive: [1] 102 % of control | [2] 121 % of control

Ic1ccccc1C[N+]12CN3CN(CN(C3)C1)C2
inactive: [10] 97 % of control | [11] 94 % of control | [12] 105 % of control

C/C=C(\CC)C(=O)NC(N)=O
inactive: [6] 93 % of control | [7] 100 % of control | [8] 93 % of control | [9] 95 % of control

COC(=O)CCC(=O)N1CCOCC1
inactive: [11] 95 % of control | dose: 100.0 mg/kg/injection, schedule: Q04DX003 (ip), vehicle: saline with Tween-80 100 % of control | [12] 93 % of control | dose: 200.0 mg/kg/injection, schedule: Q04DX003 (ip), vehicle: saline with Tween-80 102 % of control | dose: 400.0 mg/kg/injection, schedule: Q01DX009 (ip), vehicle: saline with Tween-80 97 % of control | dose: 400.0 mg/kg/injection, schedule: Q04DX003 (ip), vehicle: saline with Tween-80 102 % of control

Nc1ncnc2c1cnn2C1OC(CO)C(O)C1O (centres undefined)
inactive: [1] 113 % of control | [2] 109 % of control
